# In publication PMC9958325 (Nature Communications, 2023):
# Several values for one entry are separate records, joined by “and”; a condition that tells them apart may be missing. Equal values may be shown once. Read-outs that look alike come from different tables or passages of the source.
# Legend:
# [1] = test system: SARS-CoV-2 TKYTS14631/ο BA.5; assay: microbe, parasite or virus in culture; format: cell-based
# [2] = test system: SARS-CoV-2^WK521 in HeLa-ACE2-TMPRSS2 cells; assay: Antiviral assay, HeLa-ACE2-TMPRSS2 cells, WK521; format: cell-based
# [3] = target: T1, human calpain (Homo sapiens, UniProt P07384); assay: Human calpain activity assay; format: biochemical; conditions: triplicate, read-out: %inhibition against humanCalpain
# T1 sequence (P07384 2-714): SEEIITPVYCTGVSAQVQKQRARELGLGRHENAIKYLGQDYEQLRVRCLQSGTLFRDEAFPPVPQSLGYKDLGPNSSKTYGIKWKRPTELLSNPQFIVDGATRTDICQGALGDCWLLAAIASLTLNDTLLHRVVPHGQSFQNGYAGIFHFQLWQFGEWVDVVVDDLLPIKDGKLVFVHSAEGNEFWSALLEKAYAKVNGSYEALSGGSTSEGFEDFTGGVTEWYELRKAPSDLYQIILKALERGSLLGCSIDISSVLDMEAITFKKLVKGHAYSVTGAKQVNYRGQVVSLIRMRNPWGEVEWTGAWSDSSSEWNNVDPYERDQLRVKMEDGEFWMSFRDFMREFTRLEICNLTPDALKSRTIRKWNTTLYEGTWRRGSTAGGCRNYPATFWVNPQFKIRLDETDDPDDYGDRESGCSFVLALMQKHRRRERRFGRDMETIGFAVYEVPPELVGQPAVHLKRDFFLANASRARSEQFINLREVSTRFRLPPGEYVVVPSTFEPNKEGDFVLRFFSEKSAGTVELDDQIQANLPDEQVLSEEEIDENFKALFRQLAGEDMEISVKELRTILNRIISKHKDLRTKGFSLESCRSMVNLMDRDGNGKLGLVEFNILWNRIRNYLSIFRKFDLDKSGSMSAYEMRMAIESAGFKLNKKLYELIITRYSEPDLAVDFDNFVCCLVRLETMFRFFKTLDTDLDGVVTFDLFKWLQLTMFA
# T1 sequence (P04632 1-268 partner): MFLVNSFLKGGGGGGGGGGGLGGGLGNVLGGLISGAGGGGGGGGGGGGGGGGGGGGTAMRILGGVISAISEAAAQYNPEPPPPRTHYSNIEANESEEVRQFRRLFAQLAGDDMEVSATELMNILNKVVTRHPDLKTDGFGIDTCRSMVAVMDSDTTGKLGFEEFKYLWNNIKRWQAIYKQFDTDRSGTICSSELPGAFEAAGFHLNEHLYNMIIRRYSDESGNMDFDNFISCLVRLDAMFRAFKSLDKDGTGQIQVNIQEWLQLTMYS
# [4] = test system: SARS-CoV-2^WK-521; assay: microbe, parasite or virus in culture; format: cell-based; set-up: EC95, individual assays / EC95, Average: unit: µM
# [5] = test system: SARS-CoV-2 TKYX00012/ο BA.1; assay: microbe, parasite or virus in culture; format: cell-based
# [6] = test system: SARS-CoV-2^WK521 in A549-ACE2-TMPRSS2 cells; assay: Antiviral assay, A549-ACE2-TMPRSS2 cells, WK521; format: cell-based
# [7] = test system: SARS-CoV-2 UT-NCD1757-1N/ο BA.2.75; assay: microbe, parasite or virus in culture; format: cell-based
# [8] = Pharmacokinetic study in PXB-mice (human liver-chimeric); conditions: for Plasma concentration: PXB-mice, i.v. 10 mg/kg, individual mice
compound,measurement,setting,value
"CC(C)(C)[C@H](NC(=O)C(F)(F)F)C(=O)N1C[C@H]2[C@@H]([C@H]1C(=O)N[C@H](C#N)C[C@@H]1CCNC1=O)C2(C)C [Nirmatrelvir, reference compound]",EC50,"[1]; Severe acute respiratory syndrome coronavirus 2, Vero C1008, read-out: EC50 against TKYTS14631/ο BA.5",1080 ± 150 nM
same,EC50,"[1]; Severe acute respiratory syndrome coronavirus 2, Vero C1008, read-out: EC50 ο BA5, Average",1080 nM
same,EC50,"[1]; Severe acute respiratory syndrome coronavirus 2, Vero C1008, read-out: EC50 ο BA5, individual assays",999 nM
same,EC50,"[1]; read-out: EC50 ο BA5, individual assays",988 nM and 1250 nM
same,EC50,"[2]; Severe acute respiratory syndrome coronavirus 2, SARS-CoV-2^WK521, read-out: EC50, HeLa-ACE2-TMPRSS2",240 ± 50 nM
same,EC50,"[2]; Severe acute respiratory syndrome coronavirus 2, read-out: EC50, HeLa-AEC2-TMPRSS2, individual assays, source data",300 nM
same,EC50,"[2]; Severe acute respiratory syndrome coronavirus 2, source data, read-out: EC50, HeLa-AEC2-TMPRSS2, Average",237 nM
same,EC50,"[2]; read-out: EC50, HeLa-AEC2-TMPRSS2, individual assays, source data",200 nM and 210 nM
same,inhibition at 0.000128 µM,[3]; 0.000128 µM,0%
same,inhibition at 0.00064 µM,[3]; 0.00064 µM,0%
same,inhibition at 0.0032 µM,[3]; 0.0032 µM,0%
same,inhibition at 0.08 µM,[3]; 0.08 µM,0%
same,inhibition at 0.4 µM,[3]; 0.4 µM,0%
same,"EC95, Average",[4],7.815
same,"EC95, individual assays",[4],8.01 and 9.89 and 6.31 and 7.05
same,SARS-CoV2 RNA VeroE6 cell-based assay EC95,[4],7810 ± 1550 nM
same,EC50,"[4]; Severe acute respiratory syndrome coronavirus 2, Vero C1008, read-out: EC50, Average",942 nM
same,EC50,"[4]; Severe acute respiratory syndrome coronavirus 2, Vero C1008, read-out: EC50, VeroE6 + 2 µM CP100356",25 nM
same,EC50,"[4]; Severe acute respiratory syndrome coronavirus 2, Vero C1008, read-out: EC50, VeroE6 with CP100356, Average",25 nM
same,EC50,"[4]; Severe acute respiratory syndrome coronavirus 2, Vero C1008, read-out: EC50, VeroE6 with CP100356, individual assays",22 nM
same,EC50,"[4]; Severe acute respiratory syndrome coronavirus 2, Vero C1008, read-out: SARS-CoV2 RNA VeroE6 cell-based assay EC50",940 ± 210 nM
same,EC50,"[4]; read-out: EC50, Average",1020 nM
same,EC50,"[4]; read-out: EC50, VeroE6 with CP100356, individual assays",27 nM
same,EC50,"[4]; read-out: EC50, individual assays",1090 nM and 700 nM and 1150 nM and 830 nM and 1470 nM
same,EC50,"[5]; Severe acute respiratory syndrome coronavirus 2, Vero C1008, read-out: EC50 against KTKYX00012/ο BA.1",1050 ± 61 nM
same,EC50,"[5]; Severe acute respiratory syndrome coronavirus 2, Vero C1008, read-out: EC50 ο BA1, Average",1050 nM
same,EC50,"[5]; Severe acute respiratory syndrome coronavirus 2, Vero C1008, read-out: EC50 ο BA1, individual assays",1100 nM
same,EC50,"[5]; read-out: EC50 ο BA1, individual assays",1060 nM and 980 nM
same,EC50,"[6]; Severe acute respiratory syndrome coronavirus 2, SARS-CoV-2^WK521, read-out: EC50, A549-ACE2-TMPRSS2",17 ± 3 nM
same,EC50,"[6]; Severe acute respiratory syndrome coronavirus 2, source data, read-out: EC50, A549-AEC2-TMPRSS2, Average",17.4 nM
same,EC50,"[6]; Severe acute respiratory syndrome coronavirus 2, source data, read-out: EC50, A549-AEC2-TMPRSS2, individual assays",20 nM
same,EC50,"[6]; source data, read-out: EC50, A549-AEC2-TMPRSS2, individual assays",17.4 nM and 14.8 nM
same,EC50,"[7]; Severe acute respiratory syndrome coronavirus 2, Vero C1008, read-out: EC50 against UT-NCD1757-1N/ο BA.2.75",967 ± 135 nM
same,EC50,"[7]; Severe acute respiratory syndrome coronavirus 2, Vero C1008, read-out: EC50 ο BA2.75, Average",967 nM
same,EC50,"[7]; Severe acute respiratory syndrome coronavirus 2, Vero C1008, read-out: EC50 ο BA2.75, individual assays",830 nM
same,EC50,"[7]; read-out: EC50 ο BA2.75, individual assays",970 nM and 1100 nM
same,concentration at 10 min,"[8]; PXB (human liver-chimeric), mouse, plasma, po, 10 mg/kg, plasma concentration, 10 min, individual animals (3 per time point), LC/MS/MS",1600 ng/mL
same,concentration at 240 min,"[8]; PXB (human liver-chimeric), mouse, plasma, po, 10 mg/kg, plasma concentration, 240 min, individual animals (3 per time point), LC/MS/MS",47.2 ng/mL
same,concentration at 1440 min,"[8]; PXB (human liver-chimeric), mouse, plasma, po, 10 mg/kg, plasma concentration, 1440 min, individual animals (3 per time point), LC/MS/MS",0.63 ng/mL
same,Plasma concentration,"[8]; 10 min, 10 mg/kg",5525.9 ng/mL and 4420.7 ng/mL
same,Plasma concentration,"[8]; 0.17 hr, 10 mg/kg",5530 ng/mL and 4420 ng/mL
same,Plasma concentration,"[8]; 60 min, 10 mg/kg",305.4 ng/mL and 496.6 ng/mL
same,Plasma concentration,"[8]; 1 hr, 10 mg/kg",310 ng/mL and 500 ng/mL
same,Plasma concentration,"[8]; 240 min, 10 mg/kg",10 ng/mL and 10.6 ng/mL and 46.3 ng/mL
same,Plasma concentration,"[8]; 4 hr, 10 mg/kg",0.01 µg/ml (2×) and 0.05 µg/ml
same,Plasma concentration,"[8]; 480 min, 10 mg/kg",1.3 ng/mL and 2.2 ng/mL
same,Plasma concentration,[8]; 8 hr,0 ng/mL
same,Plasma concentration,"[8]; 1440 min, 10 mg/kg",0.2 ng/ml (2×) and 0.9 ng/ml
